Molecules are shown by their SMILES.

Sequence of human TYK2 (JH2domain-pseudokinase) (P29597 556-888): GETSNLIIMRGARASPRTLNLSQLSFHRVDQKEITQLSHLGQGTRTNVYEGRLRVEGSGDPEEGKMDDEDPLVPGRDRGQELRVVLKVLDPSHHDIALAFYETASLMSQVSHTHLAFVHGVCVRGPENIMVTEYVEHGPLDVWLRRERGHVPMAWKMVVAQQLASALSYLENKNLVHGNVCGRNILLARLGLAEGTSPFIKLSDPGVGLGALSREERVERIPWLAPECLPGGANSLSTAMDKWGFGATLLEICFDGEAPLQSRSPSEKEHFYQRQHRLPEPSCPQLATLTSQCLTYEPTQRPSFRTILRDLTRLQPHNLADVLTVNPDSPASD

This assay addresses human TYK2 (JH2domain-pseudokinase) (Homo sapiens (Human), UniProt P29597). The experiment in a line: TYK2 JH2 Domain Binding Assay (KINOMEscan, DiscoveRx). The settings on record: 11-point dilution, duplicate. The method, boiled down: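 TYK2 JH2 (G556–D888)–NFkB DBD fusion, DNA-tagged, from HEK293 extracts (<0.1 nM) competed against immobilised biotinylated ligand for 1 h at room temperature, 0.9% DMSO. Bead-retained kinase quantified by qPCR; Kd from 11-point 3-fold series (top 30,000 nM, duplicate), Hill fit with slope −1.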
On to `CS(=O)(=O)c1cc([C@@H]2CCCCO2)ccc1Nc1cc(NC(=O)C2CC2(F)F)nc2[nH]c(C(F)F)nc12` (stereo partly drawn) [I-325, N-(2-(difluoromethyl)-7-((2-(methylsulfonyl)-4-((S)-tetrahydro-2H-pyran-2-yl)phenyl)amino)-3H-imidazo[4,5-b]pyridin-5-yl)-2,2-difluorocyclopropane-1-carboxamide], for which the Kd lay within 0.5 to 1 nM. Consider `CS(=O)(=O)c1cc([C@H]2CCCCO2)ccc1Nc1cc(NC(=O)[C@H]2CC2(F)F)nc2[nH]c(C(F)F)nc12` [I-326, N-(2-(difluoromethyl)-7-((2-(methylsulfonyl)-4-((R)-tetrahydro-2H-pyran-2-yl)phenyl)amino)-3H-imidazo[4,5-b]pyridin-5-yl)-2,2-difluorocyclopropane-1-carboxamide], for which the Kd fell in the range of 1 to 10 nM. Regarding `CS(=O)(=O)c1cc([C@@H]2CCCO2)ccc1Nc1cc(NC(=O)C2CC2(F)F)nc2[nH]c(C(F)F)nc12` (stereo partly drawn) [I-327, N-(2-(difluoromethyl)-7-((2-(methylsulfonyl)-4-((S)-tetrahydrofuran-2-yl)phenyl)amino)-3H-imidazo[4,5-b]pyridin-5-yl)-2,2-difluorocyclopropane-1-carboxamide], the Kd was in the range of 0.1 to 0.5 nM. Take `CN=S(C)(=O)c1ccccc1Nc1cc(NC(=O)C2CC2)nc2[nH]c(C)nc12` (stereo not drawn) [I-328, N-(7-((2-(N,S-dimethylsulfonimidoyl)phenyl)amino)-2-methyl-3H-imidazo[4,5-b]pyridin-5-yl)cyclopropanecarboxamide]: the Kd was 0.1 to 0.5 nM. With `CS(=O)(=O)c1cc([C@H]2CCCO2)ccc1Nc1cc(NC(=O)C2CC2(F)F)nc2[nH]c(C(F)F)nc12` (stereo partly drawn) [I-329, N-(2-(difluoromethyl)-7-((2-(methylsulfonyl)-4-((R)-tetrahydrofuran-2-yl)phenyl)amino)-3H-imidazo[4,5-b]pyridin-5-yl)-2,2-difluorocyclopropane-1-carboxamide] the figure was 1 to 10 nM; with `Cc1nc2c(Nc3ccc(C4CCC(C)(C)O4)cc3S(C)(=O)=O)cc(NC(=O)C3CC3)nc2[nH]1` (stereo not drawn) [I-330, N-(7-((4-(5,5-dimethyltetrahydrofuran-2-yl)-2-(methylsulfonyl)phenyl)amino)-2-methyl-3H-imidazo[4,5-b]pyridin-5-yl)cyclopropanecarboxamide], 0.1 to 0.5 nM. `Cc1c(-c2ccc(Nc3cc(NC(=O)C4CC4(F)F)nc4[nH]c(C(F)F)nc34)c(S(C)(=O)=O)c2)cnn1C` (stereo not drawn) [I-331, N-(2-(difluoromethyl)-7-((4-(1,5-dimethyl-1H-pyrazol-4-yl)-2-(methylsulfonyl)phenyl)amino)-3H-imidazo[4,5-b]pyridin-5-yl)-2,2-difluorocyclopropane-1-carboxamide] yielded a Kd of 0.1 to 0.5 nM. On to `CC1(C)CCC(c2ccc(Nc3cc(NC(=O)C4CC4)nc4[nH]c(C(F)F)nc34)c(S(C)(=O)=O)c2)O1` (stereo not drawn) [I-332], for which the Kd is 0.1 to 0.5 nM. With `C[S+]([O-])c1ccccc1Nc1cc(NC(=O)C2CC2)nc2[nH]c(C(F)F)nc12` (stereo not drawn) [I-333, N-(2-(difluoromethyl)-7-((2-(methylsulfinyl)phenyl)amino)-3H-imidazo[4,5-b]pyridin-5-yl)cyclopropanecarboxamide], the Kd lay in the range of 1 to 10 nM. Turning to `Cc1nc2c(Nc3ccc(C4CCCO4)cc3S(C)(=O)=O)cc(NC(=O)C3CC3)nc2[nH]1` (stereo not drawn) [I-334, N-(2-methyl-7-((2-(methylsulfonyl)-4-(tetrahydrofuran-2-yl)phenyl)amino)-3H-imidazo[4,5-b]pyridin-5-yl)cyclopropanecarboxamide], the Kd was less than 0.1 nM.

Turning to `CS(=O)(=O)c1cc(C2CCCO2)ccc1Nc1cc(NC(=O)C2CC2)nc2[nH]c(C(F)F)nc12` (stereo not drawn) [I-335, N-(2-(difluoromethyl)-7-((2-(methylsulfonyl)-4-(tetrahydrofuran-2-yl)phenyl)amino)-3H-imidazo[4,5-b]pyridin-5-yl)cyclopropanecarboxamide], the Kd was greater than 10 nM. For the molecule `Cc1nc2c(Nc3ccccc3[S+](C)[O-])cc(NC(=O)C3CC3)nc2[nH]1` (stereo not drawn) [I-336, N-(2-methyl-7-((2-(methylsulfinyl)phenyl)amino)-3H-imidazo[4,5-b]pyridin-5-yl)cyclopropanecarboxamide], the Kd fell in the range of 1 to 10 nM.

Take `CS(=O)(=O)c1cc(C2CCOCC2)ccc1Nc1cc(NC(=O)C2CC2(F)F)nc2[nH]c(C(F)F)nc12` (stereo not drawn) [I-337, N-(2-(difluoromethyl)-7-((2-(methylsulfonyl)-4-(tetrahydro-2H-pyran-4-yl)phenyl)amino)-3H-imidazo[4,5-b]pyridin-5-yl)-2,2-difluorocyclopropane-1-carboxamide]: the Kd was 1 to 10 nM. In turn, `Cc1cc(-c2ccc(Nc3cc(NC(=O)C4CC4(F)F)nc4[nH]c(C(F)F)nc34)c(S(C)(=O)=O)c2)nn1C` (stereo not drawn) [I-338, N-(2-(difluoromethyl)-7-((4-(1,5-dimethyl-1H-pyrazol-3-yl)-2-(methylsulfonyl)phenyl)amino)-3H-imidazo[4,5-b]pyridin-5-yl)-2,2-difluorocyclopropane-1-carboxamide] showed a Kd of 1 to 10 nM. `Cc1nc2c(Nc3ccc(C4=NC(C)(C)CO4)cc3S(C)(=O)=O)cc(NC(=O)[C@H]3C[C@H]3F)nc2[nH]1` [I-339, (1R,2R)—N-(7-((4-(4,4-dimethyl-4,5-dihydrooxazol-2-yl)-2-(methylsulfonyl)phenyl)amino)-2-methyl-3H-imidazo[4,5-b]pyridin-5-yl)-2-fluorocyclopropane-1-carboxamide] gave a Kd of 1 to 10 nM.

For the molecule `Cc1nc2c(Nc3ccc([C@H]4CCCO4)cc3S(C)(=O)=O)cc(NC(=O)C3CC3(F)F)nc2[nH]1` (stereo partly drawn) [I-340, 2,2-difluoro-N-(2-methyl-7-((2-(methylsulfonyl)-4-((R)-tetrahydrofuran-2-yl)phenyl)amino)-3H-imidazo[4,5-b]pyridin-5-yl)cyclopropane-1-carboxamide], the Kd fell in the range of 0.5 to 1 nM. Turning to `Cc1cnc(-c2ccc(Nc3cc(Nc4cccc(C#N)n4)nc4[nH]c(C(F)F)nc34)c(S(C)(=O)=O)c2)n1C` [I-341], the Kd is 0.1 to 0.5 nM. Regarding `Cc1nc2c(Nc3ccc(-c4c(C)nn(C)c4C)cc3S(C)(=O)=O)cc(Nc3cnc(C)c(C)n3)nc2[nH]1` [I-342], the Kd is 0.1 to 0.5 nM. Regarding `Cc1ncc(Nc2cc(Nc3ccc(-c4c(C)nn(C)c4C)cc3S(C)(=O)=O)c3nc(C(F)F)[nH]c3n2)nc1C` [I-343], the equilibrium dissociation constant (Kd) is 0.1 to 0.5 nM. With `Cc1cc(Nc2cc(Nc3ccc(-c4c(C)nn(C)c4C)cc3S(C)(=O)=O)c3nc(C)[nH]c3n2)nc(C)n1` [I-344] the figure was 0.1 to 0.5 nM. In turn, `Cc1cc(Nc2cc(Nc3ccc(-c4c(C)nn(C)c4C)cc3S(C)(=O)=O)c3nc(C(F)F)[nH]c3n2)nc(C)n1` [I-345] displayed a Kd of 0.1 to 0.5 nM. With `Cc1nc2c(Nc3ccc(C4=NC(C)(C)CS4)cc3S(C)(=O)=O)cc(NC(=O)C3CC3(F)F)nc2[nH]1` (stereo not drawn) [I-346] the figure was greater than 10 nM; with `Cc1nn(C)c(C)c1-c1ccc(Nc2cc(Nc3cccc(C#N)n3)nc3[nH]c(C(F)F)nc23)c(S(C)(=O)=O)c1` [I-347], 0.1 to 0.5 nM; with `Cc1nc2c(Nc3ccc([C@@H]4CCCO4)cc3S(C)(=O)=O)cc(NC(=O)C3CC3(F)F)nc2[nH]1` (stereo partly drawn) [I-348, 2,2-difluoro-N-(2-methyl-7-((2-(methylsulfonyl)-4-((S)-tetrahydrofuran-2-yl)phenyl)amino)-3H-imidazo[4,5-b]pyridin-5-yl)cyclopropane-1-carboxamide], 0.1 to 0.5 nM. `COc1c(Nc2cc(Nc3cccc(C#N)n3)nc3[nH]c(C(F)F)nc23)cccc1-c1nc(C)cs1` [I-349] registered a Kd of 1 to 10 nM. `Cc1c(-c2ccc(Nc3cc(NC(=O)C4CC4)nc4[nH]c(C(F)F)nc34)c(S(C)(=O)=O)c2)nn(C)c1C` [I-350] yielded an equilibrium dissociation constant (Kd) of 0.1 to 0.5 nM. Take `CC1(C)CSC(c2ccc(Nc3cc(NC(=O)C4CC4(F)F)nc4[nH]c(C(F)F)nc34)c(S(C)(=O)=O)c2)=N1` (stereo not drawn) [I-351, N-(2-(difluoromethyl)-7-((4-(4,4-dimethyl-4,5-dihydrothiazol-2-yl)-2-(methylsulfonyl)phenyl)amino)-3H-imidazo[4,5-b]pyridin-5-yl)-2,2-difluorocyclopropane-1-carboxamide]: the Kd is greater than 10 nM. Take `Cc1nc2c(Nc3ccc(-c4ncc(C)n4C)cc3S(C)(=O)=O)cc(Nc3cccc(C#N)n3)nc2[nH]1` [I-352]: the Kd fell in the range of 0.1 to 0.5 nM. `CC1(C)CC[C@@H](c2ccc(Nc3cc(NC(=O)C4CC4)nc4[nH]c(C(F)F)nc34)c(S(C)(=O)=O)c2)OC1` [I-353] yielded a Kd of 0.1 to 0.5 nM. Molecule `CC1(C)CC[C@H](c2ccc(Nc3cc(NC(=O)C4CC4)nc4[nH]c(C(F)F)nc34)c(S(C)(=O)=O)c2)OC1` [I-354] gave a Kd of 1 to 10 nM. Molecule `Cc1nc2c(Nc3ccc(-c4c(C)nn(C)c4C)cc3S(C)(=O)=O)cc(Nc3cccc(C#N)n3)nc2[nH]1` [I-355] had a Kd of 0.1 to 0.5 nM. With `CC1(C)CCC(c2ccc(Nc3cc(NC(=O)C4CC4)nc4[nH]c(C(F)F)nc34)c(S(C)(=O)=O)c2)OC1` (stereo not drawn) [I-356] the figure was 0.1 to 0.5 nM. As to `Cc1nc2c(Nc3ccc(C4CC(C)(C)OC(C)(C)C4)cc3S(C)(=O)=O)cc(NC(=O)C3CC3)nc2[nH]1` [I-357], the dissociation constant Kd fell in the range of 1 to 10 nM.

As for `CS(=O)(=O)c1cc(C2CCC2)ccc1Nc1cc(NC(=O)C2CC2(F)F)nc2[nH]c(C(F)F)nc12` (stereo not drawn) [I-358, N-(7-((4-cyclobutyl-2-(methylsulfonyl)phenyl)amino)-2-(difluoromethyl)-3H-imidazo[4,5-b]pyridin-5-yl)-2,2-difluorocyclopropane-1-carboxamide], the Kd is greater than 10 nM. `CS(=O)(=O)c1cc([C@@H]2CCCOC2)ccc1Nc1cc(NC(=O)C2CC2(F)F)nc2[nH]c(C(F)F)nc12` (stereo partly drawn) [I-359, N-(2-(difluoromethyl)-7-((2-(methylsulfonyl)-4-((S)-tetrahydro-2H-pyran-3-yl)phenyl)amino)-3H-imidazo[4,5-b]pyridin-5-yl)-2,2-difluorocyclopropane-1-carboxamide] gave a Kd of 1 to 10 nM. Turning to `CS(=O)(=O)c1cc([C@H]2CCCOC2)ccc1Nc1cc(NC(=O)C2CC2(F)F)nc2[nH]c(C(F)F)nc12` (stereo partly drawn) [I-360, N-(2-(difluoromethyl)-7-((2-(methylsulfonyl)-4-((R)-tetrahydro-2H-pyran-3-yl)phenyl)amino)-3H-imidazo[4,5-b]pyridin-5-yl)-2,2-difluorocyclopropane-1-carboxamide], the Kd was 1 to 10 nM.

For orientation: Kd means the equilibrium constant for the complex coming apart.

The values above are taken from US10647713B2 (Nimbus Lakshmi, Inc., priority 2016, dated 2020).
